ChEMBL document CHEMBL1255412, “New mutation in 23S rRNA gene associated with high level of azithromycin resistance in Neisseria gonorrhoeae” (2010)
≈ marks a conversion by molar mass, not a printed value.

Assays:
Neisseria gonorrhoeae [1] = assay: Antimicrobial activity against Neisseria gonorrhoeae isolate 3783; type: functional
Neisseria gonorrhoeae [2] = assay: Antimicrobial activity against high-level azithromycin resistant Neisseria gonorrhoeae isolate 1782 harboring A2143G mutation in peptidyltransferase loop in domain V of 23S rRNA alleles; type: functional
Neisseria gonorrhoeae [3] = assay: Antimicrobial activity against azithromycin resistant Neisseria gonorrhoeae isolate 2498 harboring C2599T mutation in peptidyltransferase loop in domain V of 23S rRNA alleles; type: functional
Neisseria gonorrhoeae [4] = assay: microbe, parasite or virus in culture
Description: Antimicrobial activity against azithromycin resistant Neisseria gonorrhoeae isolate harboring C2599T mutation in peptidyltransferase loop in domain V of 23S rRNA alleles and T insertion in mtrR gene promoter region

CC[C@H]1OC(=O)[C@H](C)[C@@H](O[C@H]2C[C@@](C)(OC)[C@@H](O)[C@H](C)O2)[C@H](C)[C@@H](O[C@@H]2O[C@H](C)C[C@H](N(C)C)[C@H]2O)[C@](C)(O)C[C@@H](C)CN(C)[C@H](C)[C@@H](O)[C@]1(C)O [AZITHROMYCIN]
MIC (Neisseria gonorrhoeae [1]): 0.06 µg/mL (≈ 0.0801 µM)
MIC (Neisseria gonorrhoeae [2]): > 2050 µg/mL
MIC (Neisseria gonorrhoeae [3]): 8 µg/mL (≈ 10.7 µM)
MIC (Neisseria gonorrhoeae [4]): 4 µg/mL (≈ 5.34 µM)
